Consider five molecules from patent US20070066587A1, “Substituted azetidine compounds, their preparation and use as medicaments” (LABORATORIOS DEL DR. ESTEVE S.A, priority 2004, published 2007).

Format in all cases: in vivo
Test [1] deals with Male NMRI mice. Briefly: Mouse tetrad model, catalepsy, agonistic effect. The conditions noted are these: 5 mg/kg i.v., 20 minutes after injection. An excerpt: (§1) Substances with affinity for cannabinoid receptors are known to produce a wide range of pharmacological effects. It is also known that intravenous administration of a substance with affinity for cannabinoid receptors in mice produces analgesia, hypothermia, sedation and catalepsy. Individually, none of these effects can be considered as proof that a tested substance has affinity for cannabinoid-receptors, since all of these effects are common for various classes of centrally active agents. However, substances, which show all of these effects, i.e. substances that are active in this so-called tetrad model are considered to have affinity for the cannabinoid receptors. It has further been shown that cannabinoid receptor antagonists are higly effective in blocking the effects of a cannabinoid agonist in the mouse tetrad model.
(§2) The tetrad model is described, for example, in the publication of A. C. Howlett et al, International Union of Pharmacology XXVII. Classification of Cannabinoid Receptors, Pharmacol Rev 54, 161-202, 2002 and David R. Compton et al., “In-vivo Characterization of a Specific Cannabinoid Receptor Antagonist (SR141716A): Inhibition of Tetrahydrocannbinol-induced Responses and Apparent Agonist Activity”, J. Pharmacol. Exp. Ther. 277 , 2, 586-594, 1996. The corresponding parts of the description are hereby incorporated by reference.
(§3) Male NMRI mice with a weight of 20-30 g (Harlan, Barcelona, Spain) are used in all of the following experiments.
(§4) Before testing in the behavioral procedures given below, mice are acclimatized to the experimental setting. Pre-Treatment control values are determined for analgesia hot plate latency (in seconds), rectal temperature, sedation and catalepsy.
(§5) In order to determine the agonistic activty of the substance to be tested, the mice are injected intravenously with the substance to be tested or the vehicle alone. 15 minutes after injection, latency in hot plate analgesia is measured. Rectal temperature, sedation and catalepsy are measured 20 minutes after injection.
Catalepsy is determined according to the method described in Alpermann H. G. et al. “Pharmacological effets of Hoe 249: A new potential antidepressant”, Drugs Dev. Res. 25, 267-282. 1992. The respective description is hereby incorporated by reference and forms part of the present disclosure.
The cataleptic effect of the substance to be tested is evaluated according to the duration of catalepsy, whereby the animals are placed head downwards with their kinlegs upon the top of the wooden block.
The chosen scoring system is:
The percentage of catalepsy is determined according ot the following formula: % Catalepsy=arithmetic mean/6×100

The test system of test [2] is Male NMRI mice. Briefly: Mouse tetrad model, sedation, agonistic effect. The settings on record: 5 mg/kg i.v., 20 minutes after injection.
Description: as §1, §2, §3, §4, §5
Determination of Sedation and Ataxia
Sedation and ataxia is determined according to the method described in Desmet L. K. C. et al. “Anticonvulsive properties of Cinarizine and Flunarizine in Rats and Mice”, Arzneim.-Forsch. (Frug Res) 25, 9, 1975. The respective description is hereby incorporated by reference and forms part of the present disclosure.
The chosen scoring system is
2: obvious calmness and quiet;
prior to as well as after treatment.
(§6) The percentage of sedation is determined according to the formula: % of sedation=arithmetic mean/3×100

Test [3] has as its system Male NMRI mice. The test can be described thus: Mouse tetrad model, hot plate analgesia, agonistic effect. The settings on record: 5 mg/kg i.v., 15 minutes after injection.
Description: as §1
(§7) The tetrad model is described, for example, in the publication of A. C. Howlett et al, International Union of Pharmacology XXVII. […]
as §4, §5
The hot plate analgesia is determined according to the method described in Woolfe D. et al. “The evaluation of analgesic action of pethidine hydrochloride (Demerol)”, J. Pharmacol. Exp. Ther. 80, 300-307, 1944. […]
The mice are placed on a hot plate (Harvard Analgesimeter) at 55±0.5° C. until they show a painful sensation by licking their paws or jumping and the time for these sensations to occur is recorded. This reading is considered the basal value (B). […]
The degree of analgesia is calculated from the formula: % MPE of Analgesia=(PT-B)/(PC-B)×100 MPE=Maximum possible effect.

Test [4] deals with Male NMRI mice. The test can be described thus: Mouse tetrad model, hypothermia, agonistic effect. The settings on record: 5 mg/kg i.v., 20 minutes after injection.
Description: as §1, §2, §3, §4, §5
Hypothermia is determined according to the method described in David R. Compton et al. “In-vivo Characterization of a Specific Cannabinoid Receptor Antagonist (SR141716A) Inhibition of Tetrahydrocannbinol-induced Responses and Apparent Agonist Activity”, J. Pharmacol Exp Ther. 277, 2, 586-594, 1996. The respective description is hereby incorporated by reference and forms part of the present disclosure.
The base-line rectal temperatures are determined with a thermometer (Yello Springs Instruments Co., Panlabs) and a thermistor probe inserted to 25 mm before the administration of the substance to be tested. Rectal temperature is again measured 20 minutes after the administration of the substances to be tested. The temperature difference is calculated for each animal, whereby differences of ≧−2° C. are considered to represent activity.

Test [5] has as its system Male NMRI mice. The test can be described thus: Mouse tetrad model, hypothermia, antagonistic effect against Win 55212-2. The conditions noted are these: 5 mg/kg i.v. prior to Win 55212-2 1.25 mg/kg i.v.
Description: as §1, §7, §4
In order to determine the antagonistic activity the identical procedure is used as for the determination of the agonistic effects, but with the difference that the substance to be evaluated for its antagonistic activity is injectected 5 minutes before the intravenous injection of 1.25 mg/kg Win-55,212 a known cannabinoid-receptor agonist.
Hypothermia is determined according to the method described in David R. Compton et al. “In-vivo Characterization of a Specific Cannabinoid Receptor Antagonist (SR141716A) Inhibition of Tetrahydrocannbinol-induced Responses and Apparent Agonist Activity”, J. Pharmacol Exp Ther. 277, 2, 586-594, 1996. […]
The base-line rectal temperatures are determined with a thermometer (Yello Springs Instruments Co., Panlabs) and a thermistor probe inserted to 25 mm before the administration of the substance to be tested. […]

Test [6] concerns Male NMRI mice. The test can be described thus: Mouse tetrad model, sedation, antagonistic effect against Win 55212-2. The conditions noted are these: 5 mg/kg i.v. prior to Win 55212-2 1.25 mg/kg i.v.
Description: as §1, with “It has further been shown that cannabinoid receptor antagonists are higly effective in blocking the effects of a cannabinoid agonist in the mouse tetrad model.” left out
as §4
In order to determine the antagonistic activity the identical procedure is used as for the determination of the agonistic effects, but with the difference that the substance to be evaluated for its antagonistic activity is injectected 5 minutes before the intravenous injection of 1.25 mg/kg Win-55,212 a known cannabinoid-receptor agonist. […]
as §6

For the molecule `C[C@H]1[C@H](NS(=O)(=O)c2cccs2)CN1C(c1ccc(Cl)cc1)c1ccc(Cl)cc1` [Example 6, Thiophene-2-sulfonic acid {(2S,3R)-1-[bis-(4-chloro-phenyl)-methyl]-2-methyl-azetidin-3-yl}-amide], in test [1], the “Agonistic effect C: Catalepsy” value worked out at 0. The “Agonistic effect D: Sedation” value in test [2] was found to be 0. Also, the “Agonistic effect A: Hot-Plate test” value in test [3] turned out to be 0. In addition, the “Agonistic effect B: Hypothermia” value in test [4] turned out to be 0.
Take `C[C@H]1[C@H](NS(=O)(=O)c2ccc(F)cc2)CN1C(c1ccc(Cl)cc1)c1ccc(Cl)cc1` [Example 5, N-{(2S,3R)-1-[Bis-(4-chloro-phenyl)-methyl]-2-methyl-azetidin-3-yl}-4-fluoro-benzenesulfonamide]: the “Agonistic effect C: Catalepsy” value in test [1] is recorded as 0. Moreover, in test [2], the “Agonistic effect D: Sedation” value was 0. The “Antagonistic Effect B: Hypothermia” value in test [5] worked out at 100. Moreover, the “Agonistic effect A: Hot-Plate test” value in test [3] was 2. For the same molecule, in test [4], the “Agonistic effect B: Hypothermia” value was 0.
As for `C[C@@H]1[C@@H](NS(=O)(=O)c2ccc(S(C)(=O)=O)cc2)CN1C(c1ccc(Cl)cc1)c1ccc(Cl)cc1` (relative stereo) [Example 14, N-{trans-1-[Bis-(4-chloro-phenyl)-methyl]-2-methyl-azetidin-3-yl}-4-methylsulfonyl-benzenesulfonamide], the “Agonistic effect C: Catalepsy” value in test [1] is given as 0. In addition, the “Agonistic effect D: Sedation” value in test [2] was found to be 0. For the same molecule, the “Antagonistic Effect D: Sedation” value in test [6] was determined as 9. Also, the “Agonistic effect B: Hypothermia” value in test [4] is reported as 0.
On to `C[C@@H]1[C@@H](NS(=O)(=O)c2cccc3nsnc23)CN1C(c1ccc(Cl)cc1)c1ccc(Cl)cc1` (relative stereo) [Example 15, 2,1,3-Benzothiadiazole-4-sulfonic acid {trans-1-[bis-(4-chloro-phenyl)-methyl]-2-methyl-azetidin-3-yl}-amide], for which the “Agonistic effect C: Catalepsy” value in test [1] was found to be 0. Also, the “Agonistic effect D: Sedation” value in test [2] came to 0. In addition, in test [5], the “Antagonistic Effect B: Hypothermia” value is 100. The “Agonistic effect B: Hypothermia” value in test [4] stood at 0.
Regarding `C[C@@H]1[C@@H](OS(=O)(=O)c2ccc(F)cc2)CN1C(c1ccc(Cl)cc1)c1ccc(Cl)cc1` (relative stereo) [Example 1, 4-Fluoro-benzenesulfonic acid 1-[trans-bis-(4-chloro-phenyl)-methyl]-2-methyl-azetidin-3-yl ester], the “Agonistic effect C: Catalepsy” value in test [1] worked out at 0. In test [2], the “Agonistic effect D: Sedation” value is 0. In addition, the “Antagonistic Effect D: Sedation” value in test [6] turned out to be 20. The “Antagonistic Effect B: Hypothermia” value in test [5] is reported as 100. In addition, the “Agonistic effect A: Hot-Plate test” value in test [3] came out at 5. Besides, the “Agonistic effect B: Hypothermia” value in test [4] is 0.
